Each structure is given as a SMILES string. Converted amounts (≈) assume the structure as drawn. The source made the active and inactive calls.

Test [1] relates to Bacillus cereus. The experiment in a line: Antibacterial activity against Bacillus cereus KCTC 1661. It counts as functional.
Test [2] is described as follows: (§1) Inhibition of Staphylococcus aureus FabI-mediated trans-2-octenoyl N-acetylcysteamine reduction assessed as NADPH level by ELISA.
Test [3] deals with Staphylococcus aureus. The description is as §1.
Test [4] deals with Staphylococcus aureus. The experiment in a line: Antibacterial activity against quinolone-resistant Staphylococcus aureus CCARM 3505. It counts as functional.
Test [5] relates to Staphylococcus aureus. The test is described as follows: Antibacterial activity against methicillin-resistant Staphylococcus aureus CCARM 3167. It counts as functional.
In test [6] the test system is Staphylococcus aureus. The test is described as follows: Inhibition of Staphylococcus aureus FabG using acetoacetyl-CoA as substrate assessed as NADPH level at 300 uM by ELISA. (In general: In an ELISA, binding on a coated surface is turned into a signal by an enzyme label.)
Test [7] relates to Staphylococcus aureus. The test is described as follows: Antibacterial activity against Staphylococcus aureus RN4220. In kind it is functional.

In general, MIC refers to the smallest concentration in the dilution series that meets the test's criterion for growth inhibition. Lower therefore signals inhibition by little substance. One may read the IC50 as the concentration that inhibits the measured activity by half. Consider `COc1cc(O)c2c(c1)[C@@]1(OC2=O)C(C)=CC(=O)[C@]12C(=O)c1c(O)c(O)cc3oc(=O)c4c(O)cc(OC)c2c4c13` (relative stereo), for which the MIC in test [1], in test [4], in test [5] and in test [7] was 32 µg/mL (≈ 57.3 µM) throughout. In test [2], the IC50 amounted to 16.1 µM. In test [3], the inhibition entry was “Dose-dependent effect”. For the same compound, the inhibition result in test [6] was “inactive”.

As to `COc1cc(O)c2c(=O)oc3cc(O)c(O)cc3c2c1`, the MIC in test [1], in test [4], in test [5] and in test [7] was 8 µg/mL (≈ 29.2 µM) in each case. In addition, in test [2], the IC50 stood at 85.4 µM. Further, in test [3], the inhibition result is “Dose-dependent effect”. Besides, the inhibition entry in test [6] was “inactive”.

Consider `Oc1cc(Cl)ccc1Oc1ccc(Cl)cc1Cl` [TRICLOSAN], for which the MIC in test [1], in test [4], in test [5] and in test [7] was 0.01 µg/mL (≈ 0.0345 µM) in each case.

As for `COc1cc(O)c2c(=O)oc3c(-c4c(O)c(O)cc5oc(=O)c6c(O)cc(OC)cc6c45)c(O)c(O)cc3c2c1` [VERRULACTONE B], the MIC in test [1], in test [4], in test [5] and in test [7] was 8 µg/mL (≈ 14.6 µM) throughout. For the same compound, in test [2], the IC50 came to 1.41 µM.

In the case of `COc1cc(O)c2c(=O)oc3cc(O)c(O)c(-c4c(O)c(O)cc5oc(=O)c6c(O)cc(OC)cc6c45)c3c2c1` [VERRULACTONE A], the MIC in test [1], in test [4], in test [5] and in test [7] was 8 µg/mL (≈ 14.6 µM) each time. Moreover, the IC50 in test [2] was 0.92 µM.

The record behind these values is ChEMBL document CHEMBL3098038, “Verrulactone C with an unprecedented dispiro skeleton, a new inhibitor of Staphylococcus aureus enoyl-ACP reductase, from Penicillium verruculosum F375” (Bioorg Med Chem Lett, 2014).
